Test results reported in patent US20210052701A1, “Methods of Treating Vascular Leakage Using CXCL12 Peptides” (The Medical College of Wisconsin, Inc., priority 2018, published 2021).

B1: CXCL11: an ACKR3 and CXCR3 agonist (protein, UniProt O14625 22-94, looked up)
C-X-C motif chemokine 11: FPMFKRGRCLCIGPGVKAVKVADIEKASIMYPSNNCDKIEVIITLKENKGQRCLNPKSKQARLIIKKVERKNF

What was measured:
[1] = system: animal model of acute respiratory distress syndrome (ARDS); experiment: Animal model of ARDS: lung ischemia reperfusion injury plus hemorrhage (P:F ratio, lung injury score); format: in vivo, Sprague-Dawley rats; settings: for development of ARDS (P:F ratio): 0.14 μmol/kg i.v. within 10 min after reperfusion, until t=300 min; for histological signs of lung injury, injured lung (lung injury score): H&E sections, vs. vehicle
Description: Animals underwent 70 min of […] lung ischemia for 70 min plus hemorrhage to a MAP of 40 mmHg for the last 30 min of ischemia, followed by fluid resuscitation to a MAP of 60 mmHg until t=300 min. Arrow: drug injection. Dashed lines indicate the P:F ratio (mmHg) threshold values for the diagnosis of mild, moderate and severe ARDS. Vehicle: n=5. CXCL12: n=3. CXCL12: n=4. CXCL12-LM: n=3, CXCL12-LD: n=4. CXCL12 K27A/R41A/R47A: n=3. LI+HEM: lung ischemia reperfusion injury plus hemorrhage. Data are mean±SEM. *: p<0.05 vs. vehicle (2-way ANOVA/Dunnett's multiple comparisons test).
FIGS. 12A-12C show lung histology after treatment with CXCL12 and engineered CXCR4 agonists A. Lung specimens were placed in formalin fixative solution and were then embedded in paraffin wax, sliced into 5 μm sections and stained with H&E. Representative images from H&E stained lung sections from animals after vehicle (left) and CXCL12 ([…], right treatment. B/C. Lung injury scores (B. uninjured (left) lung; C. injured (right) lung). Data are median±interquartile ranges. Data were analyzed with the Kruskal Wallis test with Dunn's multiple comparisons test. The level of statistical significance (p) vs. ctrl. (vehicle treatment) indicated.
We tested therapeutic efficacy of wild-type CXCL12, CXXL12-locked dimer (LD), CXCL12-locked monomer (LM) and the triple mutant CXCL12 K27A/R41A/R47A in an animal model of acute respiratory distress syndrome (ARDS) (FIG. 11). All drugs were injected in a dose of 0.14 μmol/kg. Male Sprague-Dawley rats were anesthetized, orotracheally intubated, instrumented with arterial/venous catheters, and mechanically ventilated (PEEP 2 mmHg, FiO2 1.0). After a right lateral thoracotomy, a suture was tied around the hilum of the right lung. Animals underwent 70 min of right lung ischemia plus hemorrhage to a mean arterial blood pressure (MAP) of 40 mmHg for the last 30 min of lung ischemia. At t=70 min, the suture was removed, animals were ventilated with FiO2 1.0, PEEP 5 mmHg and resuscitated with crystalloids to a MAP of 60 mmHg until t=300 min. Vehicle and drugs were injected i.v. within 10 min after reperfusion.
We further evaluated histomorphology of the lungs from animals treated with vehicle, wild-type CXCL12, CXCL12-LD and CXCXL12-LM utilizing a standardized lung injury score. Lung slides stained with hematoxylin and eosin were examined under a light microscope by 4 investigators blinded to the identity of the specimens. The lung injury score was assessed as previously described/. In brief each investigator rendered a score of 0 (no damage) to 4+(maximal damage) based on an injury grading scale composed of six criteria. The slides were assessed for the extent of alveolar congestion, hemorrhage and edema, as well as alveolar and vessel wall PMN infiltration and alveolar wall thickness. […] Lung injury scores of the uninjured and injured lungs from animals treated with vehicle, wild-type CXCL12, CXCL12-LD and CXCXL12-LM are shown in FIGS. […], respectively.

CXCR4 = target: T1, CXCR4 (Homo sapiens, UniProt P61073); experiment: Presto-Tango β-arrestin 2 recruitment assay for CXCR4; format: cell-based
T1 construct: host or cells: HTLA cells (HEK293 line stably expressing a tTA-dependent luciferase reporter and a β-arrestin2-TEV fusion gene)
Description: FIGS. 6A-6F show Presto-Tango β-arrestin 2 recruitment assays for CXCR4 (A-C) and ACKR3 (D-F). RLU %: % of the luminescence signal for 1 μM CXCL12α. N=9 for CXCL12a and n=3 for all other proteins.
Presto-Tango β-arrestin 2 recruitment assay—The PRESTO-Tango (parallel receptorome expression and screening via transcriptional out-put, with transcriptional activation following arrestin translocation) assay was performed as recently described. The Tango plasmids were a gift from Dr. Bryan Roth (all from Addgene). HTLA cells (2.5×10^5/well) were seeded in a 6-well plate and transfected with 1.5 μg of the Tango plasmids using Lipofectamine 3000 (ThermoScientific). The following day, transfected HTLA cells (1×10^5 cells/well) were plated onto Poly-L-Lysine pre-coated 96-well micro-plates and allowed to attach to the plate surface for at least 4 hours prior to treatment. Proteins used for treatment were prepared in twice the final concentration in culture media, added at a 1:1 vol/vol ratio and incubated overnight at 37° C., 5% CO2 in a humidified environment. The following morning, media was removed from cell culture plates and replaced with a 100 μL 1:5 mixture of Bright-Glo (Promega) and 1×HBSS, 20 mM HEPES solution. Plates were then incubated at room temperature before measuring luminescence on a Biotek Synergy II plate reader.

hPPAEC [2] = experiment: Effects of CXCR4 agonists / CXCL12 variants on thrombin-induced impairment of hPPAEC monolayer permeability; format: cell-based, human
Description: FIGS. 3A-3D show effects of CXCL12 and ubiquitin on thrombin-induced impairment of hPPAEC monolayer permeability. hPPAEC were grown to a confluent monolayer on collagen-coated permeable membranes. (A) hPPAEC were pre-treated with vehicle, 100 nM of CXCL12 or ubiquitin for 10 minutes, as indicated, and then exposed to thrombin (50 nM), followed by the addition of FITC-dextran. Vehicle: no thrombin. Endothelial permeability was assessed by measuring the amount of FITC-dextran that permeated through the cell monolayer. No cells: 100% permeability (open circles). RFU: Relative fluorescence units. N=3 in quadruplicate. *: p<0.05 vs. vehicle/thrombin. (B-D) hPPAEC were exposed to 35 nM of thrombin or vehicle. After 10 min, thrombin-exposed cells were treated with vehicle, CXCL12 (50 nM) and/or AMD3100 (10 μM) (B), with vehicle, ubiquitin (50 nM) and/or AMD3100 (10 μM) (C) or with various concentrations of ubiquitin (D) followed by the addition of FITC-dextran. The experimental conditions are indicated. Endothelial permeability was assessed by measuring the amount of FITC-dextran that permeated through the cell monolayer. RFU: Relative fluorescence units. N=3 in quadruplicate. *: p<0.05 vs. thrombin/vehicle (2-way ANOVA/Bonferroni's multiple comparison post hoc test).
(§1) FIGS. 7A-7D show dose-dependent effects of CXCL12α/β, CXCL12 (3-68) and CXCL12 mutants K27A/R41A/R47A, R47E and S-S4V on thrombin-induced impairment of hPPAEC monolayer permeability. hPPAEC cells were grown to a confluent monolayer on collagen-coated permeable membranes. hPPAEC were then exposed to 35 nM of thrombin. After 10 min, thrombin-exposed cells were treated with vehicle or 50 nM (A), 5 nM (B), 0.5 nM (C) or 0.05 nM (D) of the various proteins, as indicated. In (D) 5 nM CXCL12a was used as a positive control. N=3 in quadruplicate.
as §1, with “8A-8D” for “7A-7D”, “CXCL12α, CXCL121” for “CXCL12α/β, CXCL12 (3-68)”, “CXCL122” for “CXCL12 mutants K27A/R41A/R47A, R47E and S-S4V”, “CXCL12α” for “CXCL12a”
FIGS. 9A-9B show inhibition of thrombin-induced hyper-permeability of hPPAEC by CXCL12/CXCL12 variants. % inhibition: % inhibition of thrombin-induced hyperpermeability. Data from FIGS. 7 and 8 at t=255 min. N=3 in quadruplicate. *: p<0.05 vs. CXCL12a (2-way ANOVA/Bonferroni's multiple comparison post hoc test).
(§2) In vitro vascular permeability assays—Permeability assays were obtained from Millipore (ECM642) and performed as per manufacturer's instructions. In brief, 96-well collagen-coated permeability assay plates were pre-hydrated for 15 min, 5×10^5 cells were seeded on each well and grown to a confluent monolayer for 48 hours. Fluorescein isothiocyanate (FITC)-dextran (20 μg/mL) was then added on top of the monolayer and the amount of FITC-dextran that permeated through the monolayer was quantified by measuring fluorescence in a Synergy 2 Multi-mode Microplate Reader (BioTek, Winooski, Vt.) at various time points over a 255 min time period.

hPPAEC [3] = experiment: In vitro vascular permeability assay (FITC-dextran), hPPAEC monolayer, CXCR4/ACKR3 ligands without thrombin; format: cell-based, human; settings: 50 nM ligand for 10 min, then FITC-dextran; no thrombin
Description: FIGS. 1A-1B show expression of CXCR4, ACKR3 and CXCR4:ACKR3 heteromers on hPPAEC and effects of CXCR4/ACKR3 ligands on hPPAEC monolayer permeability. (A) Detection of CXCR4, ACKR3 and CXCR4:ACKR3 heteromers on hPPAEC by PLA. Typical PLA images for the detection of individual receptors and CXCR4:ACKR3 heteromers. Images show merged PLA/40,6-diamidino-2-phenylindole dihydrochloride (DAPI) signals. Ctrl: Omission of one secondary antibody. (B) hPPAEC were grown to a confluent monolayer on collagen-coated permeable membranes. Cells were then exposed to vehicle or 50 nM of CXCR4/ACKR3 ligands for 10 minutes, as indicated, followed by the addition of FITC-dextran. Endothelial permeability was assessed by measuring the amount of FITC-dextran that permeated through the cell monolayer. N=3 in quadruplicate. No cells: 100% permeability, open squares. RFU: Relative fluorescence units. *: p<0.05 vs. vehicle (2-way ANOVA/Bonferroni's multiple comparison post hoc test).
Cells and cell lines—Human primary pulmonary artery endothelial cells (hPPAEC) (ATCC, PCS-100-022) and the human lung microvascular endothelial cell line HULEC-5a (ATCC, CRL-3244) were cultured in vascular cell basal medium (ATCC, PCS-100-030) with endothelial cell growth kit-VEGF (ATCC, PCS-100-041). The HTLA cell line, a HEK293 cell line stably expressing a tTA-dependent luciferase reporter and a β-arrestin2-TEV fusion gene, was generously provided by the laboratory of Dr. Bryan Roth and maintained in high glucose Dulbecco's Modified Eagle's Medium supplemented with 10% (vol/vol) FBS, 1× non-essential amino acids, 100 U/mL penicillin, 100 μg/mL streptomycin, 50 μg/mL hygromycin B, and 2 μg/mL puromycin. All cells were cultured at 37° C., 5% CO2 in a humidified atmosphere.
as §2

T1 sequence (P61073 whole entry, the tested form may be a part): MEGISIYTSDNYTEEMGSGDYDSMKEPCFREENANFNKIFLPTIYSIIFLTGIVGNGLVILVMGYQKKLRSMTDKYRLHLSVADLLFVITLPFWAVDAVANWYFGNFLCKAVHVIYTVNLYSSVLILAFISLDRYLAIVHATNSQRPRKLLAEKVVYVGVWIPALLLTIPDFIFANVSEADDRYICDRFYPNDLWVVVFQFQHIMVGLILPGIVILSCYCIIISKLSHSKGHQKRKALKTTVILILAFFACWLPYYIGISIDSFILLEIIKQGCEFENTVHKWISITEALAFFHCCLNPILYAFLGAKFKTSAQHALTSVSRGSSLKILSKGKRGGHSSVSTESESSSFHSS

Row | potency (EC50) to recruit β-arrestin 2 to CXCR4, compared with CXCL12α (CXCR4) | Molecule | development of ARDS (P:F ratio) [1] | histological signs of lung injury, injured lung (lung injury score) [1] | potency to attenuate thrombin-induced permeability of hPPAEC (in words) (hPPAEC [2]) | concentration at which thrombin-mediated hPPAEC barrier impairment was affected (hPPAEC [2]; tested 0.05-50 nM, t=255 min) | effect on hPPAEC monolayer permeability (hPPAEC [3]) | effect on thrombin-induced permeability of hPPAEC when added after thrombin (hPPAEC [2]; thrombin 35 nM, after 10 min CXCL12 or ubiquitin 50 nM, AMD3100 10 μM) | antagonism of the CXCL12 effect on thrombin-induced permeability (hPPAEC [2]; thrombin 35 nM, CXCL12 50 nM plus AMD3100 10 μM)
1 | no statistically significant differences | CXCL122: constitutively dimeric, disulfide-locked CXCL12 variant containing L36C/A65C mutations (SEQ ID NO:3) | prevented development of ARDS | significantly reduced | significantly reduced potency | 50 nM | – | – | –
2 | – | c1cc(CN2CCCNCCNCCCNCC2)ccc1CN1CCCNCCNCCCNCC1 [AMD3100] | – | – | – | – | did not affect hPPAEC permeability | did not affect thrombin-mediated hyper-permeability of hPPAEC | could be antagonized
3 | no statistically significant differences | CXCL121: constitutively monomeric CXCL12 variant with L55C and I58C substitutions (SEQ ID NO:2) | prevented development of ARDS | significantly reduced | – | – | – | – | –
4 | – | B1 | – | – | – | – | did not affect hPPAEC permeability | – | –
